From patent publication US7740835B2, “Anaerobic bacterium as a drug for cancer gene therapy” (Anaeropharma Science Inc., priority 2000, dated 2010) come the findings set out here.

This test deals with Lewis lung cancer cells. Kind of test: Growth of B. longum in tumor tissues by administering lacturose. The class given is in vivo, mice. To be noted: B. longum 105-A administered; 1 ml of 20 t lacturose solution intraperitoneally for 8 successive days; analysed on the 9th day. The source says:
Lacturose (provided by Nikken Chemicals Co., Ltd.) is a synthetic saccharide not occurring in nature, and it is known that lacturose cannot be metabolized by humans, mice and pigs (Biochem. Biophys. Acta, 110, 635 (1965), Pediatrics, 32, 1033 (1963), Gastroenterology, 47, 26 (1964), Die Nahrung, 11, 39 (1967)). On the other hand, B. longum is capable of growing with lacturose as a carbon source.
As a result, the number of B. longum bacteria present of the tumor tissues in the tumor-bearing mouse group given lacturose was 200-times as more as that of the control group not given lacturose.

For `OC[C@H]1O[C@@H](O[C@@H]2[C@@H](CO)OC(O)(CO)[C@H]2O)[C@H](O)[C@@H](O)[C@H]1O` (stereo partly drawn) [lacturose, 4-0-β-D-galactopyranosyl-D-fructofuranose], the “number of B. longum bacteria in tumor tissues of the group given lacturose relative to the control group not given lacturose” value was found to be 200 times.
